The record followed here is PubChem BioAssay AID330 (DTP/NCI, 2004).

The assay concerns P388 leukemia ip, CD2F1 mice, survival T/C. Briefly: NCI In Vivo Anticancer Drug Screen. Data for tumor model P388 Leukemia (intraperitoneal) in CD2F1 (CDF1) mice. The settings on record: endpoint: median survival time, higher = longer survival. The gist of the method:
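Mice carrying the transplanted tumor received test compound or vehicle. Survival was recorded in each group, and the value is the treated-group measurement divided by that of the vehicle-treated control group.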

Where [1] appears, read: dose: 50.0 mg/kg/injection, schedule: Q01DX009 (ip), vehicle: saline with Tween-80.
Where [2] appears, read: dose: 100.0 mg/kg/injection, schedule: Q01DX009 (ip), vehicle: saline with Tween-80.
Where [3] appears, read: dose: 200.0 mg/kg/injection, schedule: Q01DX009 (ip), vehicle: saline with Tween-80.
Setting [4] is: dose: 50.0 mg/kg/injection, schedule: Q01DX005 (ip), vehicle: Klucel (hydroxypropylcellulose) (HPC).
Setting [5] is: dose: 100.0 mg/kg/injection, schedule: Q01DX005 (ip), vehicle: Klucel (hydroxypropylcellulose) (HPC).
[6] abbreviates: dose: 200.0 mg/kg/injection, schedule: Q01DX005 (ip), vehicle: Klucel (hydroxypropylcellulose) (HPC).
[7] abbreviates: dose: 60.0 mg/kg/injection, schedule: Q01DX005 (ip), vehicle: saline with Tween-80.
The mark [8] stands for this setting: dose: 120.0 mg/kg/injection, schedule: Q01DX005 (ip), vehicle: saline with Tween-80.
Setting [9] is: dose: 240.0 mg/kg/injection, schedule: Q01DX005 (ip), vehicle: saline with Tween-80.
Where [10] appears, read: dose: 100.0 mg/kg/injection, schedule: Q01DX001 (ip), vehicle: Klucel (hydroxypropylcellulose) (HPC).
Setting [11] is: dose: 200.0 mg/kg/injection, schedule: Q01DX001 (ip), vehicle: Klucel (hydroxypropylcellulose) (HPC).
Setting [12] is: dose: 400.0 mg/kg/injection, schedule: Q01DX001 (ip), vehicle: Klucel (hydroxypropylcellulose) (HPC).
Where [13] appears, read: dose: 50.0 mg/kg/injection, schedule: Q01DX009 (ip), vehicle: saline.
Setting [14] is: dose: 100.0 mg/kg/injection, schedule: Q01DX009 (ip), vehicle: saline.
Where [15] appears, read: dose: 200.0 mg/kg/injection, schedule: Q01DX009 (ip), vehicle: saline.
The mark [16] stands for this setting: dose: 400.0 mg/kg/injection, schedule: Q01DX009 (ip), vehicle: saline.
Setting [17] is: dose: 100.0 mg/kg/injection, schedule: Q04DX003 (ip), vehicle: saline with Tween-80.
Setting [18] is: dose: 200.0 mg/kg/injection, schedule: Q04DX003 (ip), vehicle: saline with Tween-80.
Where [19] appears, read: dose: 400.0 mg/kg/injection, schedule: Q04DX003 (ip), vehicle: saline with Tween-80.
Setting [20] is: dose: 25.0 mg/kg/injection, schedule: Q01DX009 (ip), vehicle: saline.

Structures are written as SMILES. Values joined by “and” are separate entries in the source; they are usually repeats but may differ in a detail not shown here. Identical values can stand only once. Inconclusive results and toxic doses are left out.

`c1ccc(N=NC2=NN(c3ccccc3)CS2)cc1`: the T/C by setting is: (dose: 25.0 mg/kg/injection, schedule: Q01DX009 (ip), vehicle: saline with Tween-80) 105 % of control and 106 % of control; under setting [1], 101 % of control and 102 % of control; under setting [2], 101 % of control and 102 % of control; under setting [3], 101 % of control and 106 % of control.
Regarding `Cc1ccnc(NS(=O)(=O)c2ccc(N=CC3C(=O)N(c4ccccc4)N(c4ccccc4)C3=O)cc2)n1`, the T/C reads like this: (dose: 50.0 mg/kg/injection, schedule: Q01DX009 (ip), vehicle: Klucel (hydroxypropylcellulose) (HPC)) 96 % of control; (dose: 200.0 mg/kg/injection, schedule: Q01DX009 (ip), vehicle: Klucel (hydroxypropylcellulose) (HPC)) 101 % of control.
For `O=c1[nH][nH]c(O)c1-c1ccc(-c2c(O)[nH][nH]c2=O)cc1`, the T/C runs as follows: under setting [4], 105 % of control; under setting [5], 105 % of control; under setting [6], 101 % of control.
For the molecule `C[Si](C)(C)CNC(=S)S`, the T/C under setting [7] was 113 % of control, the T/C under setting [8] was 115 % of control and the T/C under setting [9] is 112 % of control.
For the molecule `CS(=O)(=O)OCC1NC(=O)C(COS(C)(=O)=O)NC1=O` (stereo not drawn), the T/C is, setting by setting: (dose: 50.0 mg/kg/injection, schedule: Q01DX009 (ip), vehicle: other) 106 % of control and 103 % of control; (dose: 100.0 mg/kg/injection, schedule: Q01DX009 (ip), vehicle: other) 98 % of control and 103 % of control; (dose: 200.0 mg/kg/injection, schedule: Q01DX009 (ip), vehicle: other) 107 % of control; (dose: 400.0 mg/kg/injection, schedule: Q01DX009 (ip), vehicle: other) 103 % of control.
For `COc1ccc(OC)c(NC(=S)NC(=O)c2cccc(Br)c2)c1`, the T/C under setting [7] is 95 % of control, the T/C under setting [8] is 92 % of control and the T/C under setting [9] is 89 % of control.
Consider `OC(ON=C1CCCCC1)c1ccc2c(c1)OCO2` (stereo not drawn), for which the T/C (dose: 50.0 mg/kg/injection, schedule: Q01DX005 (ip), vehicle: saline with Tween-80) was 96 % of control; the T/C (dose: 100.0 mg/kg/injection, schedule: Q01DX005 (ip), vehicle: saline with Tween-80) was 103 % of control; the T/C (dose: 200.0 mg/kg/injection, schedule: Q01DX005 (ip), vehicle: saline with Tween-80) was 107 % of control.
As for `C=CC=O`, the T/C (dose: 0.44 mg/kg/injection, schedule: Q01DX009 (ip), vehicle: saline) is 109 % of control; the T/C (dose: 0.88 mg/kg/injection, schedule: Q01DX009 (ip), vehicle: saline) is 109 % of control; the T/C (dose: 1.56 mg/kg/injection, schedule: Q01DX009 (ip), vehicle: saline) is 109 % of control.
As to `CN(C)CC/C=C1/c2ccccc2C=Nc2ccc(Cl)cc21`, the T/C (dose: 6.25 mg/kg/injection, schedule: Q01DX009 (ip), vehicle: Klucel (hydroxypropylcellulose) (HPC)) is 116 % of control; the T/C (dose: 12.5 mg/kg/injection, schedule: Q01DX009 (ip), vehicle: Klucel (hydroxypropylcellulose) (HPC)) was 108 % of control; the T/C (dose: 25.0 mg/kg/injection, schedule: Q01DX009 (ip), vehicle: Klucel (hydroxypropylcellulose) (HPC)) was 99 % of control.
For the molecule `c1ccc2c(c1)CCc1c-2n[nH]c1-c1[nH]nc2c1CCc1ccccc1-2`, the T/C reads like this: (dose: 60.0 mg/kg/injection, schedule: Q01DX005 (ip), vehicle: Klucel (hydroxypropylcellulose) (HPC)) 99 % of control; (dose: 120.0 mg/kg/injection, schedule: Q01DX005 (ip), vehicle: Klucel (hydroxypropylcellulose) (HPC)) 89 % of control; (dose: 240.0 mg/kg/injection, schedule: Q01DX005 (ip), vehicle: Klucel (hydroxypropylcellulose) (HPC)) 88 % of control.
In the case of `C1CSCCSCCCSCCSCCCSCCSC1`, the T/C reads like this: under setting [10], 97 % of control; under setting [11], 105 % of control; under setting [12], 97 % of control.
As for `ClCC[N+]12CC[N+](CCCl)(CC1)C2` (tested in a mixture with another compound), the T/C reads like this: (dose: 12.5 mg/kg/injection, schedule: Q01DX009 (ip), vehicle: water) 105 % of control and 118 % of control; (dose: 25.0 mg/kg/injection, schedule: Q01DX005 (ip), vehicle: saline) 116 % of control; (dose: 25.0 mg/kg/injection, schedule: Q01DX009 (ip), vehicle: water) 119 % of control; under setting [13], 159 % of control and 171 % of control; (dose: 50.0 mg/kg/injection, schedule: Q01DX009 (ip), vehicle: water) 150 % of control; (dose: 100.0 mg/kg/injection, schedule: Q01DX005 (ip), vehicle: saline) 162 % of control and 168 % of control. In addition, the T/C runs as follows: under setting [14], 197 % of control and 198 % of control; (dose: 100.0 mg/kg/injection, schedule: Q01DX009 (ip), vehicle: water) 160 % of control and 196 % of control; (dose: 200.0 mg/kg/injection, schedule: Q01DX005 (ip), vehicle: saline) 161 % of control and 212 % of control; under setting [15], 240 % of control and 263 % of control; (dose: 200.0 mg/kg/injection, schedule: Q01DX009 (ip), vehicle: water) 188 % of control; under setting [16], 281 % of control and 296 % of control.
Consider `O=C(O)CCN1C(=O)c2ccccc2C1=O`, for which the T/C reads like this: under setting [17], 100 % of control; under setting [18], 100 % of control; under setting [19], 95 % of control.
For the molecule `COc1ccc2c(C)cc(N/N=C/c3ccc(OC)c4ccccc34)nc2c1`, the T/C reads like this: under setting [4], 98 % of control; under setting [5], 102 % of control; under setting [6], 94 % of control.
In the case of `O=C(O)COC(=O)c1ccc([N+](=O)[O-])cc1`, the T/C was 99 % of control (dose: 100.0 mg/kg/injection, schedule: Q04DX003 (ip), vehicle: Klucel (hydroxypropylcellulose) (HPC)); 108 % of control (dose: 200.0 mg/kg/injection, schedule: Q04DX003 (ip), vehicle: Klucel (hydroxypropylcellulose) (HPC)); 100 % of control (dose: 400.0 mg/kg/injection, schedule: Q04DX003 (ip), vehicle: Klucel (hydroxypropylcellulose) (HPC)).
Regarding `O=C(O)CSC(CC(=O)O)C(=O)O` (stereo not drawn), the T/C was 97 % of control under setting [20], 96 % of control under setting [13], 100 % of control under setting [14] and 88 % of control under setting [15].
With `C1CSC(SCCCSC2SCCCS2)SC1`, the T/C was 99 % of control under setting [17], 104 % of control under setting [18] and 94 % of control under setting [19].
As for `NC(=S)c1ccc(/C=N/c2nccs2)cc1`, the T/C is 105 % of control under setting [10], 104 % of control under setting [11] and 105 % of control under setting [12].
In the case of `CNC(=O)Oc1ccc(/C=N/Sc2cccc([N+](=O)[O-])c2)cc1`, the T/C is 101 % of control under setting [1] and 89 % of control under setting [2].
Regarding `C=C1CCN(c2ccc(F)cc2)C1=O`, the T/C is, setting by setting: (dose: 4.0 mg/kg/injection, schedule: Q01DX009 (ip), vehicle: saline + alcohol) 100 % of control and 103 % of control and 90 % of control; (dose: 8.0 mg/kg/injection, schedule: Q01DX009 (ip), vehicle: saline + alcohol) 104 % of control and 107 % of control and 94 % of control; (dose: 16.0 mg/kg/injection, schedule: Q01DX009 (ip), vehicle: saline + alcohol) 110 % of control and 97 % of control; (dose: 32.0 mg/kg/injection, schedule: Q01DX009 (ip), vehicle: saline + alcohol) 98 % of control and 103 % of control and 104 % of control; (dose: 64.0 mg/kg/injection, schedule: Q01DX009 (ip), vehicle: saline + alcohol) 98 % of control and 100 % of control and 95 % of control.
Regarding `COC(=O)C1=C(C(=O)OC)CC1`, the T/C by setting is: under setting [1], 109 % of control; under setting [2], 109 % of control; under setting [3], 117 % of control.
As for `BrC1C(c2ccccc2)=NOC12CN=C(c1ccccc1)O2` (stereo not drawn), the T/C by setting is: under setting [10], 101 % of control; under setting [11], 99 % of control; under setting [12], 96 % of control.
For `CC(N)C(=O)NC(C(=O)O)C(C)O` (stereo not drawn), the T/C is 100 % of control under setting [20]; 102 % of control under setting [13]; 100 % of control under setting [14]; 99 % of control under setting [15]; 102 % of control under setting [16].
